Measured values from patent publication US10953100B2, “Compounds and therapeutic uses thereof” (priority 2015, dated 2021).

What follows are compounds tested against Anti-alpha galactosyl IgG antibody (assay: ELISA assay: streptavidin-captured biotin compound, binding of anti-alpha galactosyl IgG antibody). Settings: geometric mean with standard error in brackets; streptavidin plate, anti-alpha galactosyl IgG 0.5 μg/mL; read-out: Concentration at half maximal binding.
Parameters: species or system human
Description: Compounds containing F (representing a carbohydrate molecule capable of binding to a human anti-alpha-galactosyl antibody) and L (as biotin) were assayed for binding at both ends of the compound using an enzyme-linked immunosorbent assay (ELISA). Streptavidin-coated plates captured biotin to the surface of the plate and the binding of anti-alpha galactosyl antibodies to the alpha-galactosyl moiety was reported by a secondary antibody labelled with HRP (Horse Radish Peroxidase).
Compounds were titrated 1.5 fold from a top dose of 50 nM in phosphate buffered saline (PBS) (Sigma D8537)+0.025% DMSO (Dimethyl Sulphoxide, Sigma D8418). Streptavidin immobilizer 96-well plates (nunc 436014) were coated with 100 μL of compound at room temperature for 2 hours shaking at 500 rpm. Plates were washed with 2×200 μL PBS-T (PBS with 0.05% Tween 20 (Sigma P9416)) and 1×200 μL PBS-T with a 5 minute incubation shaking at room temperature, prior to being blocked for 1 hour at room temperature with 1% Bovine Serum Albumin (BSA, Sigma A2153) in PBS-T. After removing the blocking buffer, 50 μL of Anti-alpha galactosyl IgG antibody (Anti-alpha-galactosyl antibody was purified from human IVIG (Gammagard) by affinity purification using an alpha-galactosyl-HSA (Human Serum Albumin) sepharose column by Rockland Immunochemicals Inc.) at 0.5 μg/mL in PBS-T+1% BSA and incubated shaking at room temperature for 1 hour.
Plates were washed 2×200 μL PBS-T and 3×200 μL PBS-T with a 5 minute incubation, shaking at room temperature before the addition of 50 μL 1:5000 Goat Anti-Human IgG-HRP (horseradish peroxidase) conjugate (Abcam ab97175). The plates were incubated shaking at room temperature for 1 hour before a final wash of 2×200 μL PBS-T and 3×200 μl PBS-T with a 5 minute incubation shaking at room temperature. 100 μL TMB buffer (3,3′,5,5′-tetramethylbenzidine, a chromogenic substrate for horseradish peroxidase) (Pierce 34021) was added to the plate and allowed to develop for 5-10 minutes before the samples were quenched with 50 μL 2M sulfuric acid (Sigma 258105). The absorbance was read at 450 nm on an Envision plate reader (Perkin Elmer). Results from wells (duplicate) were averaged and the 50% binding affinity calculated.
The concentration at which half-maximal binding is achieved is reported as a geometric mean with standard error in brackets. The number of independent experiments is also reported. In order to achieve a signal both ends of the molecule are required to bind (biotin to streptavidin and alpha-galactosyl to anti-alpha galactosyl antibodies) simultaneously.
In the case of `CC(=O)N[C@H]1[C@H](OCCCNCc2cccc(C(=O)NCCNC(=O)CCCC[C@@H]3SC[C@@H]4NC(=O)N[C@@H]43)c2)O[C@H](CO)[C@@H](O[C@@H]2O[C@H](CO)[C@H](O)[C@H](O[C@H]3O[C@H](CO)[C@H](O)[C@H](O)[C@H]3O)[C@H]2O)[C@@H]1O` [Example 17, 3-(((3-(((2R,3R,4R,5S,6R)-3-Acetamido-5-(((2S,3R,4S,5S,6R)-3,5-dihydroxy-6-(hydroxymethyl)-4-(((2R,3R,4S,5R,6R)-3,4,5-trihydroxy-6-(hydroxymethyl)tetrahydro-2H-pyran-2-yl)oxy)tetrahydro-2H-pyran-2-yl)oxy)-4-hydroxy-6-(hydroxymethyl)tetrahydro-2H-pyran-2-yl)oxy)propyl)amino)methyl)-N-(2-(5-((3aS,4S,6aR)-2-oxohexahydro-1H-thieno[3,4-d]imidazol-4-yl)pentanamido)ethyl)benzamide], the EC50 is reported as 17.7 nM. Work on `CC(=O)NC1C(O)[C@H](O[C@@H]2OC(CO)[C@H](O)C(O[C@H]3OC(CO)[C@H](O)C(O)C3O)C2O)C(CO)O[C@H]1OCCCNC(=O)CCCNC(=O)COc1cc(OCC(=O)NCCCC(=O)NCCCO[C@@H]2OC(CO)[C@@H](O[C@@H]3OC(CO)[C@H](O)C(O[C@H]4OC(CO)[C@H](O)C(O)C4O)C3O)C(O)C2NC(C)=O)cc(-c2cc(OCC(=O)NCCCC(=O)NCCCO[C@@H]3OC(CO)[C@@H](O[C@@H]4OC(CO)[C@H](O)C(O[C@H]5OC(CO)[C@H](O)C(O)C5O)C4O)C(O)C3NC(C)=O)cc(C(=O)NCCNC(=O)CCCC[C@@H]3SC[C@@H]4NC(=O)N[C@@H]43)c2)c1` (stereo partly shown) [Example 60] yielded an EC50 of 24.1 nM. `CC(=O)NC1C(OCCCNC(=O)CCOCCOCCOCCOCCNC(=O)COc2cc(OCC(=O)NCCOCCOCCOCCOCCC(=O)NCCCOC3OC(CO)C(OC4OC(CO)C(O)C(OC5OC(CO)C(O)C(O)C5O)C4O)C(O)C3NC(C)=O)cc(C(=O)NCCNC(=O)CCOCCOCCOCCOCCOCCOCCOCCOCCOCCOCCOCCOCCNC(=O)CCCCC3SCC4NC(=O)NC43)c2)OC(CO)C(OC2OC(CO)C(O)C(OC3OC(CO)C(O)C(O)C3O)C2O)C1O` (stereo not shown) [Example 21] was tested, and the EC50 was 14.8 nM. `CC(=O)NC1C(OCCCNC(=O)CCOCCOCCOCCOCCNC(=O)COc2ccc(-c3cc(OCC(=O)NCCOCCOCCOCCOCCC(=O)NCCCOC4OC(CO)C(OC5OC(CO)C(O)C(OC6OC(CO)C(O)C(O)C6O)C5O)C(O)C4NC(C)=O)cc(C(=O)NCCNC(=O)CCOCCOCCOCCOCCOCCOCCOCCOCCOCCOCCOCCOCCNC(=O)CCCCC4SCC5NC(=O)NC54)c3)cc2)OC(CO)C(OC2OC(CO)C(O)C(OC3OC(CO)C(O)C(O)C3O)C2O)C1O` (stereo not shown) [Example 53] showed an EC50 of 34.9 nM. `CC(=O)N[C@H]1[C@H](OCCCNC(=O)COc2cccc(C(=O)NCCNC(=O)CCCC[C@@H]3SC[C@@H]4NC(=O)N[C@@H]43)c2)O[C@H](CO)[C@@H](O[C@@H]2O[C@H](CO)[C@H](O)[C@H](O[C@H]3O[C@H](CO)[C@H](O)[C@H](O)[C@H]3O)[C@H]2O)[C@@H]1O` [Example 2, 3-(2-((3-(((2R,3R,4R,5S,6R)-3-Acetamido-5-(((2S,3R,4S,5S,6R)-3,5-dihydroxy-6-(hydroxymethyl)-4-(((2R,3R,4S,5R,6R)-3,4,5-trihydroxy-6-(hydroxymethyl)tetrahydro-2H-pyran-2-yl)oxy)tetrahydro-2H-pyran-2-yl)oxy)-4-hydroxy-6-(hydroxymethyl)tetrahydro-2H-pyran-2-yl)oxy)propyl)amino)-2-oxoethoxy)-N-(2-(5-((3aS,4S,6aR)-2-oxohexahydro-1H-thieno[3,4-d]imidazol-4-yl)pentanamido)ethyl)benzamide] gave an EC50 of 21.2 nM. For `CC(=O)NC1C(OCCCNC(=O)CCOCCOCCOCCOCCOCCOCCOCCOCCOCCOCCOCCOCCNC(=O)COc2ccc(-c3cc(OCC(=O)NCCOCCOCCOCCOCCOCCOCCOCCOCCOCCOCCOCCOCCC(=O)NCCCOC4OC(CO)C(OC5OC(CO)C(O)C(OC6OC(CO)C(O)C(O)C6O)C5O)C(O)C4NC(C)=O)cc(C(=O)NCCNC(=O)CCOCCOCCOCCOCCOCCOCCOCCOCCOCCOCCOCCOCCNC(=O)CCCCC4SCC5NC(=O)NC54)c3)cc2)OC(CO)C(OC2OC(CO)C(O)C(OC3OC(CO)C(O)C(O)C3O)C2O)C1O` (stereo not shown) [Example 48], the EC50 was 25 nM. In the case of `CC(=O)NC1C(OCCCNC(=O)CCOCCOCCOCCOCCNC(=O)COc2ccc(-c3cc(OCC(=O)NCCOCCOCCOCCOCCC(=O)NCCCOC4OC(CO)C(OC5OC(CO)C(O)C(OC6OC(CO)C(O)C(O)C6O)C5O)C(O)C4NC(C)=O)cc(C(=O)NCCNC(=O)CCCCC4SCC5NC(=O)NC54)c3)cc2)OC(CO)C(OC2OC(CO)C(O)C(OC3OC(CO)C(O)C(O)C3O)C2O)C1O` (stereo not shown) [Example 20], the EC50 is reported as 14.8 nM. `CC(=O)N[C@H]1[C@H](OCCCNC(=O)COc2cc(OCC(=O)NCCCO[C@@H]3O[C@H](CO)[C@@H](O[C@@H]4O[C@H](CO)[C@H](O)[C@H](O[C@H]5O[C@H](CO)[C@H](O)[C@H](O)[C@H]5O)[C@H]4O)[C@H](O)[C@H]3NC(C)=O)cc(-c3cc(C(=O)NCCNC(=O)CCCC[C@@H]4SC[C@@H]5NC(=O)N[C@@H]54)cc(-c4cc(OCC(=O)NCCCO[C@@H]5O[C@H](CO)[C@@H](O[C@@H]6O[C@H](CO)[C@H](O)[C@H](O[C@H]7O[C@H](CO)[C@H](O)[C@H](O)[C@H]7O)[C@H]6O)[C@H](O)[C@H]5NC(C)=O)cc(OCC(=O)NCCCO[C@@H]5O[C@H](CO)[C@@H](O[C@@H]6O[C@H](CO)[C@H](O)[C@H](O[C@H]7O[C@H](CO)[C@H](O)[C@H](O)[C@H]7O)[C@H]6O)[C@H](O)[C@H]5NC(C)=O)c4)c3)c2)O[C@H](CO)[C@@H](O[C@@H]2O[C@H](CO)[C@H](O)[C@H](O[C@H]3O[C@H](CO)[C@H](O)[C@H](O)[C@H]3O)[C@H]2O)[C@@H]1O` [Example 62] showed an EC50 of 20.7 nM. `CC(=O)N[C@H]1[C@H](OCCCNC(=O)COc2ccc(-c3cccc(C(=O)NCCNC(=O)CCCC[C@@H]4SC[C@@H]5NC(=O)N[C@@H]54)c3)cc2)O[C@H](CO)[C@@H](O[C@@H]2O[C@H](CO)[C@H](O)[C@H](O[C@H]3O[C@H](CO)[C@H](O)[C@H](O)[C@H]3O)[C@H]2O)[C@@H]1O` [Example 11] gave an EC50 of 19 nM. For `CC(=O)N[C@H]1[C@H](OCCCNC(=O)COc2cccc(-c3cc(OCC(=O)NCCCO[C@@H]4O[C@H](CO)[C@@H](O[C@@H]5O[C@H](CO)[C@H](O)[C@H](O[C@H]6O[C@H](CO)[C@H](O)[C@H](O)[C@H]6O)[C@H]5O)[C@H](O)[C@H]4NC(C)=O)cc(C(=O)NCCNC(=O)CCCC[C@@H]4SC[C@@H]5NC(=O)N[C@@H]54)c3)c2)O[C@H](CO)[C@@H](O[C@@H]2O[C@H](CO)[C@H](O)[C@H](O[C@H]3O[C@H](CO)[C@H](O)[C@H](O)[C@H]3O)[C@H]2O)[C@@H]1O` [Example 14], the EC50 was 11.9 nM. For `CC(=O)NC1C(OCCCNC(=O)CCCNC(=O)CCOCCOCCOCCOCCNC(=O)COc2cc(OCC(=O)NCCOCCOCCOCCOCCC(=O)NCCCC(=O)NCCCOC3OC(CO)C(OC4OC(CO)C(O)C(OC5OC(CO)C(O)C(O)C5O)C4O)C(O)C3NC(C)=O)cc(-c3cc(OCC(=O)NCCOCCOCCOCCOCCC(=O)NCCCC(=O)NCCCOC4OC(CO)C(OC5OC(CO)C(O)C(OC6OC(CO)C(O)C(O)C6O)C5O)C(O)C4NC(C)=O)cc(C(=O)NCCNC(=O)CCCCC4SCC5NC(=O)NC54)c3)c2)OC(CO)C(OC2OC(CO)C(O)C(OC3OC(CO)C(O)C(O)C3O)C2O)C1O` (stereo not shown) [Example 59], the EC50 was 21.3 nM. In the case of `CC(=O)NC1C(OCCCNC(=O)CCOCCOCCOCCOCCNC(=O)COc2cc(OCC(=O)NCCOCCOCCOCCOCCC(=O)NCCCOC3OC(CO)C(OC4OC(CO)C(O)C(OC5OC(CO)C(O)C(O)C5O)C4O)C(O)C3NC(C)=O)cc(-c3cc(C(=O)NCCNC(=O)CCCCC4SCC5NC(=O)NC54)c(OCC(=O)NCCOCCOCCOCCOCCC(=O)NCCCOC4OC(CO)C(OC5OC(CO)C(O)C(OC6OC(CO)C(O)C(O)C6O)C5O)C(O)C4NC(C)=O)cc3OCC(=O)NCCOCCOCCOCCOCCC(=O)NCCCOC3OC(CO)C(OC4OC(CO)C(O)C(OC5OC(CO)C(O)C(O)C5O)C4O)C(O)C3NC(C)=O)c2)OC(CO)C(OC2OC(CO)C(O)C(OC3OC(CO)C(O)C(O)C3O)C2O)C1O` (stereo not shown) [Example 51], the EC50 is reported as 19.7 nM. Work on `CC(=O)N[C@H]1[C@H](OCCCNC(=O)COc2cc(-c3cccc(C(=O)NCCNC(=O)CCCC[C@@H]4SC[C@@H]5NC(=O)N[C@@H]54)c3)cc(OCC(=O)NCCCO[C@@H]3O[C@H](CO)[C@@H](O[C@@H]4O[C@H](CO)[C@H](O)[C@H](O[C@H]5O[C@H](CO)[C@H](O)[C@H](O)[C@H]5O)[C@H]4O)[C@H](O)[C@H]3NC(C)=O)c2OCC(=O)NCCCO[C@@H]2O[C@H](CO)[C@@H](O[C@@H]3O[C@H](CO)[C@H](O)[C@H](O[C@H]4O[C@H](CO)[C@H](O)[C@H](O)[C@H]4O)[C@H]3O)[C@H](O)[C@H]2NC(C)=O)O[C@H](CO)[C@@H](O[C@@H]2O[C@H](CO)[C@H](O)[C@H](O[C@H]3O[C@H](CO)[C@H](O)[C@H](O)[C@H]3O)[C@H]2O)[C@@H]1O` [Example 55] yielded an EC50 of 27.4 nM.
